As usually defined, the MIC is the smallest concentration in the dilution series that meets the test's criterion for growth inhibition. Low readings indicate a more susceptible organism, high ones a less susceptible organism.

This note sets out measurements from patent EP0002058A1, “3-(2-Aminoethylthio-6-ethyl-7-oxo-1-azabicylo-(3.2.0)-hept-2-en-2-carboxylic acid, process for preparing it and compositions comprising it” (SANRAKU-OCEAN CO., LTD., priority 1977, dated 1979).

Values after ≈ are worked out from the molar mass of the structure shown. Structures can show the parent of a compound that is named as a salt.

For series [1], the system named is Comanonas terrigena B-996. The series is described as follows: Bioassay of antibacterial potency (disc on agar assay plate, CCU). The format is cell-based. The following applies: purified solid preparation. An excerpt:
• (1) Cells of Comanonas terrigena B-996, cultivated on a nutrient agar overnight, are suspended in a nutrient broth to give a seed culture having an absorbance at […], ascribable to the cells, of 0.04. A melted agar medium consisting of 0.8% Kyokuto powdered bouillon (Kyokuto Seiyaku Kogyo) and 1% Bacto agar (Difco Labs.) is inoculated with 1% of the seed culture. Seven ml portions of the agar medium are poured into petri dishes with a diameter of 9 cm and solidified to prepare a Comamonas assay plate. • (2) Staphylococcus aureus FDA209P is cultivated overnight with shaking in a nutrient broth. The culture is diluted to 50 times with a nutrient broth to obtain a seed culture. A melted agar medium consisting of 1% Kyokuto powdered bouillon (Kyokuto Seiyaku Kogyo) and 1% Bacto agar (Difco Labs.) is inoculated with 1% of the seed culture. Seven ml portions of the agar medium are poured into petri dishes with a diameter of 9 cm and solidified to prepare a Staphylococcus assay plate. • (3) A pulp disc with a diameter of 8 mm is soaked in a sample solution and put on the assay plate mentioned above after removing an excess of the sample solution soaked by placing on filter paper. […] The diameter of the inhibitory zone is measured. TIle concentration of the test compound in the sample solution is calculated by comparing the diameter with that of the standard solution.

In series [2] the test system is Staphylococcus aureus FDA 209P. The series is described as follows: Minimum inhibitory concentration, broth dilution method (brain heart infusion medium). Type of series: cell-based. Particulars: for MIC: Staphylococcus aureus, FDA209P, inoculum about 1 x 10^5/ml, 35°C, 20 hours. The method, then: (§1) The minimum inhibitory concentration was determined on various pathogenic microorganisms including a resistant strain to the N-desacetyl derivative by the broth dilution method with a brain heart infusion medium "Eiken" (Eiken Kagaku Co.). Sample solutions to be tested were prepared in a serial dilution with the medium, which were inoculated with the test microorganisms at the final cell count of about 1 x 10^5/ml and incubated at 35 °C. After 20 hours the microbial growth was examined. The minimum inhibitory concentration was determined as the lowest concentration of the sample at which no growth of the corresponding test microorganism was observed.
Background: In broth dilution the organism is exposed to a series of concentrations in liquid medium.

Series [3] has as its system Klebsiella pneumoniae K-2. Described as above. The following applies: K2, inoculum about 1 x 10^5/ml, 35°C, 20 hours. The format is cell-based. The method, then:
as §1

Series [4] relates to Staphylococcus aureus Russel. Described as above. The format is cell-based. The following applies: inoculum about 1 x 10^5/ml, 35°C, 20 hours. How it is done:
as §1

Series [5] relates to Staphylococcus aureus Smith. The series is described as follows: Activity in vivo in mice inoculated intraperitoneally with Staphylococcus aureus Smith. The following applies: sc, 5 x 10^5 cells/mouse intraperitoneally, injected subcutaneously immediately after the inoculation, read-out: CD50 value. The arrangement: species or system male ddy mice. The method, then:
The N-desacetyl derivative was prepared on a large scale in a similar manner to the above-described and the activity in vivo was determined in mice inoculated with 5 x 10^5 cells/mouse of Staphylococcus aureus Smith intraperitoneally. The derivative was injected subcutaneously immediately after the inoculation.

A further series can be described thus: Solubility. The format is physicochemical.
In a further series the test system is staphylococcal bacteria. The series is described as follows: Antimicrobial spectrum (general statement). Type of series: cell-based.
For series [6], the system named is pathogenic Gram-positive bacteria. The series is described as follows: Activity in vivo (general statement). Particulars: mice infected with pathogenic Gram-positive bacteria.
On the set-up of series [7]: species or system male ddy mice. Particulars: mouse, in vivo, ip, 500 mg/kg.

For the compound `CC[C@H]1C(=O)N2C(C(=O)O)=C(SCCNC(C)=O)C[C@H]12` (relative stereo) [PS-5 sodium salt, reference compound], the antibacterial potency in series [1] is reported as 21,000 CCU/mg.

With `CC[C@H]1C(=O)N2C(C(=O)OC(c3ccccc3)(c3ccccc3)c3ccccc3)=C(SCCNC(C)=O)C[C@H]12` (relative stereo) [trityl ester of antibiotic PS-5], in series [1], the antibacterial potency is recorded as 10,800 CCU/mg.

In the case of `CO[C@@]1(NC(=O)Cc2cccs2)C(=O)N2C(C(=O)O)=C(COC(N)=O)CS[C@@H]21` [Cefoxitin, reference compound], the MIC in series [2] stood at 1.56 µg/mL (≈ 3.65 µM); in series [3] it was 12.5 µg/mL (≈ 29.2 µM); in series [4], 3.13 µg/mL (≈ 7.32 µM).

Take `CCC1C(=O)N2C(C(=O)O)=C(SCCN)CC12` (stereo not drawn) [N-desacetyl derivative]: in series [5], the ED50 is 0.55 mg/kg. Moreover, the “Solubility in acetone, ethyl acetate and benzene” value in “Solubility” (acetone, ethyl acetate and benzene) is “practically insoluble”. In the series “Solubility” (water), the Solubility in water entry is listed as “easily soluble”. Moreover, in series [2] (Staphylococcus aureus FDA 209p, times higher than antibiotic PS-5), the “inhibitory activity relative to that of the antibiotic PS-5” value was “about 10 times”. Also, the MIC in [2] was determined as 0.008 µg/mL (≈ 0.0312 µM); in series [3], 5 µg/mL (≈ 19.5 µM); in [4], 0.063 µg/mL (≈ 0.246 µM). Besides, the antimicrobial activity entry in the series with staphylococcal bacteria is “high antimicrobial activity”. Moreover, the therapeutic effect entry in series [6] is on record as “remarkable therapeutic effect”. For the same compound, in series [7], the acute toxicity result is “No acute toxicity”.
